Like-named read-outs stand apart in the source and are kept apart here.
Test system: PSMA+ PC-3 PiP and PSMA− PC-3 flu tumors
[1] = 1 h, co-injection 0.5 nmole YC-I-27
[2] = 2 hours (footnote a), co-injection 0.5 nmole YC-I-27
[3] = 24 h, co-injection 0.5 nmole YC-I-27
[4] = 4 h, co-injection 0.5 nmole YC-I-27

SMILES: O=C(O)CC[C@H](NC(=O)N[C@@H](CCC(=O)NCCc1ccc([125I])cc1)C(=O)O)C(=O)O [[^125I]HS-549]
- Biodistribution: Blood (1 h, No CI): 5.9 ± 1.0 % injected dose/gram
- Biodistribution: Flu tumor (1 h, No CI): 2.2 ± 0.5 % injected dose/gram
- Biodistribution: PiP tumor (1 h, No CI): 78 ± 19 % injected dose/gram
- Biodistribution: kidneys (1 h, No CI): 106 ± 19 % injected dose/gram
- Biodistribution: spleen (1 h, No CI): 6.8 ± 3.4 % injected dose/gram
- Biodistribution: stomach (1 h, No CI): 0.9 ± 0.2 % injected dose/gram
- Biodistribution: thyroid (1 h, No CI): 1.2 ± 0.4 % injected dose/gram
- Biodistribution: Blood [1]: 2.6 ± 0.6 % injected dose/gram
- Biodistribution: Flu tumor [1]: 1.0 ± 0.45 % injected dose/gram
- Biodistribution: Lacrimal gland [1]: 1.1 ± 0.4 % injected dose/gram
- Biodistribution: PiP tumor [1]: 31 ± 4.2 % injected dose/gram
- Biodistribution: Salivary gland [1]: 1.0 ± 0.2 % injected dose/gram
- Biodistribution: kidneys [1]: 12.1 ± 1.9 % injected dose/gram
- Biodistribution: spleen [1]: 0.8 ± 0.2 % injected dose/gram
- Biodistribution: stomach [1]: 0.8 ± 0.3 % injected dose/gram
- Biodistribution: thyroid [1]: 5.6 ± 9.2 % injected dose/gram
- Biodistribution: Blood [2]: 0.8 ± 0.1 % injected dose/gram
- Biodistribution: Flu tumor [2]: 0.3 ± 0.15 % injected dose/gram
- Biodistribution: Lacrimal gland [2]: 0.5 ± 0.3 % injected dose/gram
- Biodistribution: PiP tumor [2]: 39 ± 4 % injected dose/gram
- Biodistribution: Salivary gland [2]: 0.4 ± 0.2 % injected dose/gram
- Biodistribution: kidneys [2]: 2.8 ± 0.8 % injected dose/gram
- Biodistribution: spleen [2]: 0.4 ± 0.1 % injected dose/gram
- Biodistribution: stomach [2]: 0.3 ± 0.1 % injected dose/gram
- Biodistribution: thyroid [2]: 0.3 ± 0.1 % injected dose/gram
- Biodistribution: Blood (4 h, No CI): 2.9 ± 0.3 % injected dose/gram
- Biodistribution: Flu tumor (4 h, No CI): 1.5 ± 0.3 % injected dose/gram
- Biodistribution: PiP tumor (4 h, No CI): 75 ± 13 % injected dose/gram
- Biodistribution: kidneys (4 h, No CI): 97 ± 39 % injected dose/gram
- Biodistribution: spleen (4 h, No CI): 2.7 ± 0.8 % injected dose/gram
- Biodistribution: stomach (4 h, No CI): 0.5 ± 0.2 % injected dose/gram
- Biodistribution: thyroid (4 h, No CI): 0.7 ± 0.3 % injected dose/gram
- Biodistribution: Blood (21 hours (footnote b), No CI): 1.4 ± 0.4 % injected dose/gram
- Biodistribution: Flu tumor (21 hours (footnote b), No CI): 0.4 ± 0.2 % injected dose/gram
- Biodistribution: PiP tumor (21 hours (footnote b), No CI): 23 ± 2 % injected dose/gram
- Biodistribution: kidneys (21 hours (footnote b), No CI): 3.1 ± 1.6 % injected dose/gram
- Biodistribution: spleen (21 hours (footnote b), No CI): 0.3 ± 0.1 % injected dose/gram
- Biodistribution: stomach (21 hours (footnote b), No CI): 0.1 ± 0.04 % injected dose/gram
- Biodistribution: thyroid (21 hours (footnote b), No CI): 0.4 ± 0.05 % injected dose/gram
- Biodistribution: Blood [3]: 0.6 ± 0.3 % injected dose/gram
- Biodistribution: Flu tumor [3]: 0.2 ± 0.2 % injected dose/gram
- Biodistribution: Lacrimal gland [3]: 0.2 ± 0.1 % injected dose/gram
- Biodistribution: PiP tumor [3]: 35 ± 5 % injected dose/gram
- Biodistribution: Salivary gland [3]: 0.2 ± 0.1 % injected dose/gram
- Biodistribution: kidneys [3]: 0.7 ± 0.3 % injected dose/gram
- Biodistribution: spleen [3]: 0.1 ± 0.07 % injected dose/gram
- Biodistribution: stomach [3]: 0.1 ± 0.05 % injected dose/gram
- Biodistribution: thyroid [3]: 0.5 ± 0.8 % injected dose/gram

SMILES: O=C([O-])CN1CCN(CC(=O)[O-])CCN(CC(=O)NCCCCC(=O)N(CCCC[C@H](NC(=O)N[C@@H](CCC(=O)O)C(=O)O)C(=O)O)Cc2ccc([211At])cc2)CCN(CC(=O)[O-])CC1.[Lu+3] [[^211At]VK-02-90-Lu]
- Biodistribution: Blood (1 h, No CI): 0.8 ± 0.2 % injected dose/gram
- Biodistribution: Flu tumor (1 h, No CI): 0.4 ± 0.2 % injected dose/gram
- Biodistribution: Lacrimal gland (1 h, No CI): 0.8 ± 0.9 % injected dose/gram
- Biodistribution: PiP tumor (1 h, No CI): 31 ± 5 % injected dose/gram
- Biodistribution: Salivary gland (1 h, No CI): 0.5 ± 0.2 % injected dose/gram
- Biodistribution: kidneys (1 h, No CI): 90 ± 43 % injected dose/gram
- Biodistribution: spleen (1 h, No CI): 2.5 ± 0.9 % injected dose/gram
- Biodistribution: stomach (1 h, No CI): 0.4 ± 0.1 % injected dose/gram
- Biodistribution: Blood [1]: 0.5 ± 0.1 % injected dose/gram
- Biodistribution: Flu tumor [1]: 0.4 ± 0.1 % injected dose/gram
- Biodistribution: Lacrimal gland [1]: 0 % injected dose/gram
- Biodistribution: PiP tumor [1]: 25 ± 4 % injected dose/gram
- Biodistribution: Salivary gland [1]: 0.4 ± 0.2 % injected dose/gram
- Biodistribution: kidneys [1]: 2.2 ± 0.6 % injected dose/gram
- Biodistribution: spleen [1]: 0.3 ± 0.4 % injected dose/gram
- Biodistribution: stomach [1]: 0.4 ± 0.2 % injected dose/gram
- Biodistribution: Blood (4 h, No CI): 0.1 ± 0.03 % injected dose/gram
- Biodistribution: Flu tumor (4 h, No CI): 0.1 ± 0.1 % injected dose/gram
- Biodistribution: Lacrimal gland (4 h, No CI): 0.3 ± 1.1 % injected dose/gram
- Biodistribution: PiP tumor (4 h, No CI): 17 ± 5 % injected dose/gram
- Biodistribution: Salivary gland (4 h, No CI): 0.2 ± 0.1 % injected dose/gram
- Biodistribution: kidneys (4 h, No CI): 2.1 ± 0.6 % injected dose/gram
- Biodistribution: spleen (4 h, No CI): 0 % injected dose/gram
- Biodistribution: stomach (4 h, No CI): 0.3 ± 0.2 % injected dose/gram
- Biodistribution: Blood [4]: 0.2 ± 0.1 % injected dose/gram
- Biodistribution: Flu tumor [4]: 0.0 ± 0.04 % injected dose/gram
- Biodistribution: Lacrimal gland [4]: 0 % injected dose/gram
- Biodistribution: PiP tumor [4]: 19 ± 5 % injected dose/gram
- Biodistribution: Salivary gland [4]: 0.3 ± 0.2 % injected dose/gram
- Biodistribution: kidneys [4]: 0.7 ± 0.1 % injected dose/gram
- Biodistribution: spleen [4]: 0.8 ± 0.5 % injected dose/gram
- Biodistribution: stomach [4]: 0.4 ± 0.05 % injected dose/gram
- Biodistribution: Blood (24 h, No CI): 0 % injected dose/gram
- Biodistribution: Flu tumor (24 h, No CI): 0 % injected dose/gram
- Biodistribution: Lacrimal gland (24 h, No CI): 0 % injected dose/gram
- Biodistribution: PiP tumor (24 h, No CI): 9.5 ± 1.0 % injected dose/gram
- Biodistribution: Salivary gland (24 h, No CI): 0 % injected dose/gram
- Biodistribution: kidneys (24 h, No CI): 0.02 ± 0.02 % injected dose/gram
- Biodistribution: spleen (24 h, No CI): 0 % injected dose/gram
- Biodistribution: stomach (24 h, No CI): 0 % injected dose/gram
- Biodistribution: Blood [3]: 0.03 ± 0.3 % injected dose/gram
- Biodistribution: Flu tumor [3]: 0.2 ± 0.3 % injected dose/gram
- Biodistribution: Lacrimal gland [3]: 0 % injected dose/gram
- Biodistribution: PiP tumor [3]: 18 ± 8 % injected dose/gram
- Biodistribution: Salivary gland [3]: 0 % injected dose/gram
- Biodistribution: kidneys [3]: 0.4 ± 0.5 % injected dose/gram
- Biodistribution: spleen [3]: 02.5 ± 4.3 % injected dose/gram
- Biodistribution: stomach [3]: 0.4 ± 0.7 % injected dose/gram

Reference: patent US20210338846A1, “COMPETITIVE PROSTATE-SPECIFIC MEMBRANE ANTIGEN (PSMA) BINDING AGENTS FOR REDUCTION OF NON-TARGET ORGAN UPTAKE OF RADIOLABELED PSMA INHIBITORS FOR PSMA POSITIVE TUMOR IMAGING AND RADIOPHARMACEUTICAL THERAPY” (The Johns Hopkins University, priority 2018, published 2021)
